Experimental findings from paper PMC10879502, “Linking ATP and allosteric sites to achieve superadditive binding with bivalent EGFR kinase inhibitors” (Communications Chemistry, 2024) are described below.

For orientation: IC50 means the concentration that gives 50% inhibition.

Structures are written as SMILES. Several values for one entry are separate records, joined by “and”; a condition that tells them apart may be missing. Identical values can stand only once. Like-named read-outs stand apart in the source and are kept apart here.

Test [1] deals with T1, EGFR L858R/T790M/C797S (LRTMCS) kinase domain (Homo sapiens, UniProt P00533, C797S/L858R/T790M).
T1 construct: The EGFR kinase domain (residues 696–1022) was cloned into pTriEx; 6xHis (N, cleaved yes); GST (N, cleaved yes); made in house; host or cells: SF9 insect cells, baculovirus
The test is described as follows: HTRF KinEASE-TK kinase activity assay. Format: biochemical. Background: In TR-FRET formats the signal depends on donor and acceptor labels being close together.

The test system of another test is Ba/F3 cells, L858R EGFR. As to the kind of experiment: Ba/F3 resazurin antiproliferative assay. Format: cell-based. The settings on record: Mus musculus, BaF3, 72 h, Ba/F3, 72 h; read-out: EGFR EC50, LR. As for the experimental part: (§1) H1975 and HCC827 cells were obtained from the lab of Dr. Pasi Jänne (Dana-Farber Cancer Institute, 2022) cultured at 37 °C in RPMI 1640 media (Corning, 1004-CV) supplemented with 10% fetal bovine serum (Tissue Culture Biologicals, 35-010-CV) and 1% penicillin and streptomycin (P/S, Corning, 30-002-CI) and seeded overnight in a 96-well plate at a density of 60000 cells/mL. Cells were dosed with inhibitors to a final DMSO 0.5% in triplicate for 37 °C for 72 h. Cellular inhibition of growth was assessed by MTT viability assay according to the manufactures protocol (OZ Biosciences). Parental Ba/F3 cells was a generous gift from the laboratory of Dr. David Weinstock (in 2014), Dr. Pasi Jänne (2020) both of the Dana-Farber Cancer Institute and was used to generate the wildtype EGFR, L858R, and L858R/T790M EGFR mutant Ba/F3 cells[52],[67]. Ba/F3 cells were all cultured in RPMI1640 media with 10% fetal bovine serum and 1% penicillin and streptomycin. The Ba/F3 cell lines were tested negative for Mycoplasma using Mycoplasma Plus PCR Primer Set (Agilent) and were passaged and/or used for no longer than 4 weeks for all experiments. Assay reagents were purchased from MilliporeSigma (Cat# R7017-5G). Ba/F3 cells were plated and treated with increasing concentrations of inhibitors in triplicate for 72 h. Compounds were dispensed using the Tecan D300e Digital Dispenser. […] All experiments were repeated at least 3 times and values were reported as an average with standard deviation.

Test [2] concerns Ba/F3 cells, L858R/T790M EGFR. As to the kind of experiment: Ba/F3 resazurin antiproliferative assay. Format: cell-based. To be noted: Mus musculus, BaF3; Ba/F3, 72 h; read-out: EGFR EC50, LR/TM. As for the experimental part: as §1
For orientation: Alamar Blue is a resazurin reagent that responds to reducing activity.

For test [3], the system named is Ba/F3 cells, LR/TM/CS EGFR. As to the kind of experiment: Ba/F3 resazurin antiproliferative assay. Format: cell-based. To be noted: Mus musculus, BaF3; Ba/F3, 72 h. As for the experimental part:
as §1

For test [4], the system named is Ba/F3 cells, wildtype EGFR. As to the kind of experiment: Ba/F3 resazurin antiproliferative assay. Format: cell-based. To be noted: Mus musculus, BaF3; Ba/F3, 72 h; read-out: EGFR EC50, wt. As for the experimental part:
as §1

In test [5] the test system is EGFR phosphorylation (pY1068) in H1975 cells. As to the kind of experiment: Western blot. Format: cell-based, human. As for the experimental part: H1975, H3255, H3255GR and HCC827 lung adenocarcinoma cells (obtained from Dr. Pasi Jänne in Dana-Farber Cancer Institute, 2022) were cultured in RPMI 1640 media (Corning, 1004-CV) supplemented with 10% FBS (Tissue Culture Biologicals, 35-010-CV) and 1% penicillin-streptomycin (P/S, Corning, 30-002-CI). All cell lines were tested negative for Mycoplasma using Myco-Sniff-Rapid™ Mycoplasma Luciferase Detection Kit Plus PCR Primer Set (MP biomedicals, 0930504-CF) and were passaged and/or used for no longer than 4 weeks for all experiments H1975 and HCC-827 cells were seeded in 6-well plates with 400,000 cells per well and incubated overnight. H3255 and H3255GR cells were seeded in 12-well plates with 200,000 cells per well and were grown to confluency after 48 h. Culture medium was removed, cells washed with PBS, and lysed with lysis buffer containing 5 M NaCl, 1 M TRIS pH 8.0, 10% SDS, 10% Triton X-100 and a tablet of protease and phosphatase inhibitor. Protein lysate concentration was analyzed using Pierce BCA kit (ThermoFisher, 23225). Protein samples (10 µg) were resolved on hand-cast Criterion Tris-HCl protein gels. Primary antibodies used; phospho-EGFR (Tyr1068; #2234, 1:1,000), EGFR (#4267; 1:1,000), phospho-AKT (Ser473; #4060, 1:1,000), AKT (#9272, 1:1,000), phospho-ERK1/2 (Thr202/Tyr204; #4370, 1:1,000), and ERK1/2 (#4695, 1:1,000) antibodies; were purchased from Cell Signaling Technology. Secondary Goat anti-rabbit IgG starbright blue 700 (Biorad, 64484700) and Anti-tubulin hFAB Rhodamine Tubulin (Bio-Rad, 64512248). Western blots were visualized with the ChemiDoc MP imager (Bio-Rad) utilizing the Image Lab Touch Software (version 2.4.0.03). All Western blot images are representatives of at least 3 independent replicate experiments.
For orientation: A western blot detects proteins with antibodies after separation by electrophoresis.

In the next test the target is ALK (Homo sapiens, UniProt Q9UM73). The test is described as follows: KINOMEscan. To be noted: 1 μM. Format: binding.
The subject of another test is EGFR(L747-T751del+Sins). The test is described as follows: KINOMEscan. Format: binding. To be noted: 1 μM.
A further test has as its target FER (Homo sapiens, UniProt P16591). The test is described as follows: KINOMEscan. Format: binding. To be noted: 1 μM.
The next test deals with T2, FLT3(K663Q) (Homo sapiens, UniProt P36888, K663Q).
T2 construct: purchased Eurofins DiscoverX Corporation
As to the kind of experiment: KINOMEscan. Format: binding. To be noted: 1 μM.

The target in another test is T3, LIMK1 (Homo sapiens, UniProt P53667).
T3 construct: purchased Eurofins DiscoverX Corporation
The test is described as follows: KINOMEscan. Format: binding. The settings on record: 1 μM.

In a further test the target is T4, MARK3 (Homo sapiens, UniProt P27448).
T4 construct: purchased Eurofins DiscoverX Corporation
The test is described as follows: KINOMEscan. Format: binding. To be noted: 1 μM.

The next test addresses PFCDPK1(P.falciparum) (Plasmodium falciparum, UniProt P62344). As to the kind of experiment: KINOMEscan. The settings on record: 1 μM. Format: binding.
The target in a further test is PIK3CA (Homo sapiens, UniProt P42336). As to the kind of experiment: KINOMEscan. Format: binding. To be noted: 1 μM.
A further test addresses ROCK1 (Homo sapiens, UniProt Q13464). The test is described as follows: KINOMEscan. Format: binding. To be noted: 1 μM.
For a further test, the target named is SNRK (Homo sapiens, UniProt Q9NRH2). As to the kind of experiment: KINOMEscan. Format: binding. The settings on record: 1 μM.
The target in a further test is T5, TLK1 (Homo sapiens, UniProt Q9UKI8).
T5 construct: purchased Eurofins DiscoverX Corporation
As to the kind of experiment: KINOMEscan. To be noted: 1 μM. Format: binding.

Where [6] appears, read: enzyme 0.02 nM, ATP 100 µM, read-out: Biochemical EGFR IC50, LRTMCS.

Chain of ROCK1 (Q13464 whole entry): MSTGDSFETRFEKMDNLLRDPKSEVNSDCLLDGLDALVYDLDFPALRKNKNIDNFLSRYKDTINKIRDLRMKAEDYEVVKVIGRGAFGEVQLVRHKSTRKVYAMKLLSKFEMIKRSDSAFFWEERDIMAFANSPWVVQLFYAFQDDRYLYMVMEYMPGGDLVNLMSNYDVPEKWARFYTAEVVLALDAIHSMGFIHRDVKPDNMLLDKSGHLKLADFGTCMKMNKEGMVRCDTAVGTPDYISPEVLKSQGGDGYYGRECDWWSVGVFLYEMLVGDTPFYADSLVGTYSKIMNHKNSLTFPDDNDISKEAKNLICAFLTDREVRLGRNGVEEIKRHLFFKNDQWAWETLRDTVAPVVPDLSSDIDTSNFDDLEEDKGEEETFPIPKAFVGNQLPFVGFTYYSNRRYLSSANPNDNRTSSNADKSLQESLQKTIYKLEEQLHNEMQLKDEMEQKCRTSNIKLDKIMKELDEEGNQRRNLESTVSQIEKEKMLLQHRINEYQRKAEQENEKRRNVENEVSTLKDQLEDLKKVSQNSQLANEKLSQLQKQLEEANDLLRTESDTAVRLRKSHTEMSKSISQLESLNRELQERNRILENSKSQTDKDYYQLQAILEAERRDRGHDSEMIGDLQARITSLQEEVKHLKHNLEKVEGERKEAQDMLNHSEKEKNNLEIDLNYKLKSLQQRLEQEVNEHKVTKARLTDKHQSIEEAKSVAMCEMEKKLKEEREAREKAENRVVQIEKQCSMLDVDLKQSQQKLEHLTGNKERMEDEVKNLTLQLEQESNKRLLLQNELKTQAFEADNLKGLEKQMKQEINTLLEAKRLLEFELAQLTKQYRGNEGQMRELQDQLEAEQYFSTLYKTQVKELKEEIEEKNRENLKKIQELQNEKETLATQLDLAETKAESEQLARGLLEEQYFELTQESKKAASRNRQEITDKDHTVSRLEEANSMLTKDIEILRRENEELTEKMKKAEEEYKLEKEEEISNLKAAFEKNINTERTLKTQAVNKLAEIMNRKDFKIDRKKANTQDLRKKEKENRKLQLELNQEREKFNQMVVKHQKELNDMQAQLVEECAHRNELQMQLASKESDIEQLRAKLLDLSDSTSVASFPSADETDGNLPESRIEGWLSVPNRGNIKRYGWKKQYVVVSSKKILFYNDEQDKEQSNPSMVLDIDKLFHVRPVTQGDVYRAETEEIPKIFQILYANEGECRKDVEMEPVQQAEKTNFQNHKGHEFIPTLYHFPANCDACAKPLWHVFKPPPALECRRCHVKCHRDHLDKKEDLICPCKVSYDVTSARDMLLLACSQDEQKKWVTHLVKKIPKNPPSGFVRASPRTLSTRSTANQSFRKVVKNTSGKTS
Chain of ALK (Q9UM73 19-1620): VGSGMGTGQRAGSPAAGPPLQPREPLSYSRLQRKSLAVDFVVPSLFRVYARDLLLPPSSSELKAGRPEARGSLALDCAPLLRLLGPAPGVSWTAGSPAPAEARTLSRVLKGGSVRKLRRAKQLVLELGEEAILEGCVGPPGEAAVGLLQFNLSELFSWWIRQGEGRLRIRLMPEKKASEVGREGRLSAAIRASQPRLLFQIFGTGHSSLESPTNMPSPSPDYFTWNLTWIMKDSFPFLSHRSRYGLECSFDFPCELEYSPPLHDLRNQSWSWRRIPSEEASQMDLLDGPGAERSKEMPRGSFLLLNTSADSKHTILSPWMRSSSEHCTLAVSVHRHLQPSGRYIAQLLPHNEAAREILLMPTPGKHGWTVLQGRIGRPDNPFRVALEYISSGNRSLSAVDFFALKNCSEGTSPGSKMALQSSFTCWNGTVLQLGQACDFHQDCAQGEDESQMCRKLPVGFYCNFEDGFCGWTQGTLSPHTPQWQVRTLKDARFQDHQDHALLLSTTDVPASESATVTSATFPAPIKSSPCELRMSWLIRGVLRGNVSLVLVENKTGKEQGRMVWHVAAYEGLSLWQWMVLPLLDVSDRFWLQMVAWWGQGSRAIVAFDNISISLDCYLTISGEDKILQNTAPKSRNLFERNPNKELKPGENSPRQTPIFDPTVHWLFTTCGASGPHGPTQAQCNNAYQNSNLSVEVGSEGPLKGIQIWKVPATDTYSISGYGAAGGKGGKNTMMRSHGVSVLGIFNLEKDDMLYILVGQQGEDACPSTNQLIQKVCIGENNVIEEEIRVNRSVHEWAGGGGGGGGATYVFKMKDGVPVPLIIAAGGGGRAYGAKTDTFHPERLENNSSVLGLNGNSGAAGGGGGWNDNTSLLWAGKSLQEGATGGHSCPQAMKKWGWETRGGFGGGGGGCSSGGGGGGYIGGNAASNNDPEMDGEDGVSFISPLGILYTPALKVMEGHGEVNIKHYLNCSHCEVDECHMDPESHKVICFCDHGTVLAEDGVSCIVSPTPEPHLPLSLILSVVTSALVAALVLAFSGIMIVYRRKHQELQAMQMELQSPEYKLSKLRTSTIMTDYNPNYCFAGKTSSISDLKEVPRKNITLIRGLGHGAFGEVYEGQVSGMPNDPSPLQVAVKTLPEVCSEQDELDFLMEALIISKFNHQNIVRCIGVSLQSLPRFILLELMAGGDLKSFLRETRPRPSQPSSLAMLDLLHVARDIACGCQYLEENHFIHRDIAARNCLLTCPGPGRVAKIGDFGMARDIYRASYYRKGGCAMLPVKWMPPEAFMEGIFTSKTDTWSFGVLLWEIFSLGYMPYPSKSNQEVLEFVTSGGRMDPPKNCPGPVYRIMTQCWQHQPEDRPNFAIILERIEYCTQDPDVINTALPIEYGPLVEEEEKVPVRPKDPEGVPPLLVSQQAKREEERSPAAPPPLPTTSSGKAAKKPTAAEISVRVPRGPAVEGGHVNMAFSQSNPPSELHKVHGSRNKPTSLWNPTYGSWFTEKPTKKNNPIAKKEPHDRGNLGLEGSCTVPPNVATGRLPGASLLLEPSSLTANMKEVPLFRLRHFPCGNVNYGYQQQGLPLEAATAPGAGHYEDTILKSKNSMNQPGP
Chain of PIK3CA (P42336 whole entry): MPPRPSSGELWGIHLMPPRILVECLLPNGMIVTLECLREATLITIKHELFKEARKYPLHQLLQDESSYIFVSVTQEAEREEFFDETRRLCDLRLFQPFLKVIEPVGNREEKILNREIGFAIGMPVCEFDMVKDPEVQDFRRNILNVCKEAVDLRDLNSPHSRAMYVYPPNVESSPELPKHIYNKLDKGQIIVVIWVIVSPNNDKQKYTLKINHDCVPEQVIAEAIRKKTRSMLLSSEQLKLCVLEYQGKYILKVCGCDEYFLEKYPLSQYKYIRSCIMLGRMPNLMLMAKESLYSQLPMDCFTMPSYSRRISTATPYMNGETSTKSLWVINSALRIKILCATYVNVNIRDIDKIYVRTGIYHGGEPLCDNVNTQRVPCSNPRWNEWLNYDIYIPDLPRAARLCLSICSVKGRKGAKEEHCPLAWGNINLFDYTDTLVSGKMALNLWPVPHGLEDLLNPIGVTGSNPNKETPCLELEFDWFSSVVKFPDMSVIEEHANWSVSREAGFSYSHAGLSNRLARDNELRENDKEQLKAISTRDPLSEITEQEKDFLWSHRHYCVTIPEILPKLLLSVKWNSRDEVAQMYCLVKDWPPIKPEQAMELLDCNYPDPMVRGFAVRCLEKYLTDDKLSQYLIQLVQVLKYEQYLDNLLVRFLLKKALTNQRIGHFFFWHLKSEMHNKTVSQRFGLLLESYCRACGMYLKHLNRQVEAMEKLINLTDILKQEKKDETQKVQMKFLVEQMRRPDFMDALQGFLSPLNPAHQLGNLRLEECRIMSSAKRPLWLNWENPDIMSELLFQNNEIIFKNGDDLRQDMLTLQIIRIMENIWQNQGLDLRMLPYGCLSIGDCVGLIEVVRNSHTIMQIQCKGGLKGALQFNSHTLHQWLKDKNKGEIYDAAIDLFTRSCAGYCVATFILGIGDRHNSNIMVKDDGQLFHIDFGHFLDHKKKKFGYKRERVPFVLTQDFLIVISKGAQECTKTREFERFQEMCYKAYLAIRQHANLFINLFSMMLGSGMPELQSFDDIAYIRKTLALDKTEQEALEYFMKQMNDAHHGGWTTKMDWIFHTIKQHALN
Chain of PFCDPK1(P.falciparum) (P62344 whole entry): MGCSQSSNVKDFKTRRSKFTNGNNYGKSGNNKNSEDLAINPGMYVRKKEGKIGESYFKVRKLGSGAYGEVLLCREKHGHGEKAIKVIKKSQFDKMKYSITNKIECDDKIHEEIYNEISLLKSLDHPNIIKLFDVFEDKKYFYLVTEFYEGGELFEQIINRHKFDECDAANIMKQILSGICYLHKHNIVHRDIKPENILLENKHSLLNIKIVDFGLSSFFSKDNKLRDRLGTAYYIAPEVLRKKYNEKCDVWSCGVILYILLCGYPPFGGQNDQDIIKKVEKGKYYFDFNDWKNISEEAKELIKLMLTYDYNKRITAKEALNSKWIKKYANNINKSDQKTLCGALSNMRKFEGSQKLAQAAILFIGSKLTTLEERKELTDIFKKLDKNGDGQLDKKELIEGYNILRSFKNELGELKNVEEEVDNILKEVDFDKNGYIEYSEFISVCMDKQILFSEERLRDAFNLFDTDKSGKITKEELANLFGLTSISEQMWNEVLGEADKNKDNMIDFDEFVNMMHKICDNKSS

Regarding `CSc1nc(-c2cccc(NC(=O)c3cccc4c3NC(=O)c3ccccc3N4)c2)c(-c2ccnc(NC(C)=O)c2)[nH]1` [Compound 2], the activity in test [1] (LRTMCS, [Inhibitor] 1.3e-5 nM, read-out: percent inhibition) is 93.5% and 92.2% and 100%; in [1] (LRTMCS, [Inhibitor] 3.18e-5 nM, read-out: percent inhibition), 90.3% (2×) and 95.9%; in test [1] (LRTMCS, [Inhibitor] 7.78e-5 nM, read-out: percent inhibition) it was 71% and 67.2% and 70.8%. In addition, the activity at 190.4 fM in test [1] (LRTMCS, [Inhibitor] 0.000190441 nM, read-out: percent inhibition) came out at 39.1%. Further, the activity at 466 fM in [1] (LRTMCS, [Inhibitor] 0.000465979 nM, read-out: percent inhibition) came to 22.7%. Further, the activity at 1.14 pM in test [1] (LRTMCS, [Inhibitor] 0.00114018 nM, read-out: percent inhibition) was 13.5%. Also, the activity at 2.79 pM in [1] (LRTMCS, [Inhibitor] 0.00278983 nM, read-out: percent inhibition) came out at 8.55%. Further, the activity at 6.826 pM in test [1] (LRTMCS, [Inhibitor] 0.00682626 nM, read-out: percent inhibition) stood at 4.28%. The activity at 16.7 pM in test [1] (LRTMCS, [Inhibitor] 0.0167028 nM, read-out: percent inhibition) is 1.88%. Besides, the IC50 in [1] (setting [6]) was 0.064 ± 0.004 nM; in test [1] (read-out: IC50, LRTMCS) it was 0.051 to 0.064 nM. Further, the EC50 in the test on Ba/F3 cells, L858R EGFR is 5300 nM; in test [2] it was more than 10000 nM; in [3], 6500 nM; in [4], 5100 nM. Also, the “suppression of EGFR phosphorylation” value in test [5] (H1975, 6 h) is on record as “also effective in H1975 cells, however to a lesser extent than 4”.
Consider `C=CC(=O)Nc1ccc(OC)c(Nc2cc(-c3[nH]c(CC)nc3-c3cccc(NC(=O)c4cccc5c4NC(=O)c4ccccc4N5)c3)ccn2)c1` [Compound 4], for which the IC50 in test [1] (setting [6]) is 1.8 ± 0.3 nM. The “IC50 improvement over orthosteric-only 7, LRTMCS” value in [1] (reversible inhibition) is on record as 100 fold. Also, the EC50 in the test on Ba/F3 cells, L858R EGFR was 220 nM; in test [2], 770 nM; in [3] it was more than 10000 nM; in [4], 950 nM. In addition, the “concentration suppressing LRTM phosphorylation (pY1068), pERK and pAKT” value in test [5] (H1975, dosed for 6 h) is “below 1 µM”. The POC is listed as 100% of control on ALK; 7.6% of control in the test on EGFR(L747-T751del+Sins); 36% of control on FER; 87% of control on FLT3(K663Q); 79% of control at LIMK1; 100% of control at MARK3. Further, the POC at PFCDPK1(P.falciparum) is reported as 87% of control; at PIK3CA it was 70% of control; at ROCK1, 100% of control; on SNRK, 82% of control; on TLK1, 87% of control.
